# Test results reported in US10689622B2, “Culture medium for proliferating stem cell, which contains sulfated compound” (AJINOMOTO CO., INC., priority 2012, dated 2020).
# Legend:
# bFGF [1] = molecular target: T1, bFGF (Homo sapiens, UniProt P09038); assay: Evaluation of bFGF stabilization in Lonza serum-free medium (ELISA); assay type: biochemical
# T1 construct: purchased Lonza (via TAKARA BIO INC.) Ser. No. 00/190,632
# Procedure: (§1) A test compound was dissolved in phosphate buffered saline, and diluted 10-fold with a serum-free medium to adjust to the concentrations shown in Table 4 (test sample). The test sample was left standing in a tightly sealed Falcon tube at 37° C. for 7 days (Tables 5 to 8-2) or 3 days (Table 8-3), and the bFGF concentration was quantified by ELISA measurement. A phosphate buffered saline without a test compound was diluted 10-fold with a serum-free medium, and left standing at 37° C. or 4° C. for 7 days or 3 days, and used as a control.
# (§2) A commercially available measurement kit (human bFGF ELISA kit, ELH-bFGF-001, Ray Biotech) was used for quantification of bFGF in the medium. The measurement procedures followed the protocol attached to the kit. The bFGF concentration of the serum-free medium was calculated from the analytical curve (conversion formula) drawn from the absorbance of an analytical curve standard solution. The evaluation criteria of Tables 5-8 are as follows:
# as §1, with “Table 13” for “Table 4”, “7 days,” for “7 days (Tables 5 to 8-2) or 3 days (Table 8-3),”, “7” for “7 days or 3”
# as §2, with “Table 13” for “Tables 5-8”, “follows: […]” for “follows:”
# [2] = Measurement of content level of sulfur in test compound (ICP); assay type: physicochemical
# From the text: (§3) The content level of sulfur in the sulfated saccharide is generally not less than 5 wt %, preferably not less than 10 wt %, more preferably not less than 15 wt %, and the upper limit is generally not more than 40 wt %, preferably not more than 35 wt %, more preferably not more than 30 wt %. […] Here, the content level of sulfur is a proportion in wt % of sulfur derived only from the sulfate group in sulfated saccharides, which can be measured by a method known in the field (e.g., rhodizonate method, elemental analysis or luminescent spectral analysis).
# as §3, with “polymer” for “saccharide”, “wt” for “wt %, preferably not more than 35 wt %, more preferably not more than 30 wt”, “in” for “derived only from”, “the” for “the sulfate group in”, “polymer,” for “saccharides,”, “such as” for “(e.g.,”
# The relationship between the content level of sulfur in a test compound (sulfur content) and the cell proliferation promoting effect was examined. The sulfur content was measured using ICPS-8100 manufactured by SHIMADZU CORPORATION and analyzed using ICPS-8000 series Ver1.03. As the reference standard of sulfur, the standard for ICP-MS manufactured by Accu Standard was used. Sulfur reference standard solutions (0, 1, 10, 30, 50 ppm) were prepared, and the sulfur content of the evaluation samples containing 0.01 wt % test compound was measured by an analytical curve method.
# [3] = test system: Human bone marrow-derived mesenchymal stem cells; assay: Mesenchymal stem cell proliferation system (cell number by DNA quantification); settings: for number of cells relative to control: mesenchymal stem cells
# Procedure: Human bone marrow-derived mesenchymal stem cells (Lonza, Human Mesenchymal Stem Cell) cultured in mesenchymal stem cell-dedicated medium (Lonza, MSCGM) or Dulbecco's Modified Eagle Medium (Invitrogen, GIBCO D-MEM) containing inactivated fetal bovine serum (Invitrogen, GIBCO FBS) and penicillin-streptomycin (Sigma-Aldrich Co. LLC.) were cultured in exchanged Lonza serum-free medium. The mesenchymal stem cells thus-acclimated to serum-free culture were suspended in Lonza serum-free medium, and seeded on a 24 well culture plate (Nippon Becton Dickinson Company, Ltd., Falcon culture plate) at 20,000 cells/well or a 6 well culture plate (Nippon Becton Dickinson Company, Ltd., Falcon culture plate) at 50,000 cells/well. Then, a test compound solution after filter sterilization and adjustment to a given concentration was added, and the cells were cultured in an incubator (Thermo Scientific, Forma incubator) under the 5% CO2/37° C. conditions for 7 to 8 days. When the medium exchange was necessary, the medium was exchanged 2 to 3 days after the seeding. In this case, the test compound solution was also added again in the same manner as in seeding. In this case, various compound solutions were added again in the same manner as in seeding. After culturing for 7 to 8 days, the medium was removed and DNA quantification was performed. As a control, the cells were cultured in the same manner in a medium without a test compound and added with phosphate buffered saline.
# The medium in the 24 well culture plate was removed, and the cells were washed with phosphate buffered saline. The sodium lauryl sulfate solution (500 μl/well) was added, and the mixture was left standing at 37° C. for 4 hours. The sodium lauryl sulfate solution (1.0 ml) was also added to a cell pellet with a known cell number, and the mixture was left standing at 37° C. for 4 hours. As for the cells in the 24 well culture plate, a part (50 μl) of the lysate was transferred to a 96 well black microplate. The solution used for treating the cell pellets was successively diluted with sodium lauryl sulfate solution and used as solutions for drawing an analytical curve. Also, a part (50 μl) of the solutions for drawing an analytical curve was each transferred to the 96 well black microplate. […] The fluorescence was measured by a microplate reader (excitation wavelength: 355 nm, measurement wavelength: 460 nm) within 5 minutes from the addition. The cell number of the 24 well cell culture plate was calculated from the analytical curve drawn (conversion formula). The evaluation criteria were as follows.
# bFGF [4] = molecular target: T1, bFGF; assay: Evaluation of bFGF stabilization in Essential 8 medium (ELISA); assay type: biochemical; settings: 37° C. for 7 days
# Procedure: as §2
# (§4) A test compound was dissolved in phosphate buffered saline, and diluted 10-fold with a serum-free medium to adjust the concentration shown in Table 4 (test sample). The test sample was left standing in a tightly sealed Falcon tube at 37° C. for 7 days, and the bFGF concentration was quantified by ELISA measurement. A phosphate buffered saline without a test compound was diluted 10-fold with Essential 8 medium or ReproFF2 medium, and left standing at 37° C. or 4° C. for 7 days, and used as a control.
# as §2, with “Table 13” for “Tables 5-8”
# as §4, with “Table 12” for “Table 4”
# [5] = Lonza serum-free medium, 37° C. for 7 days, test compound 25 ng/ml
# [6] = Lonza serum-free medium, 37° C. for 7 days, test compound 250 ng/ml
# [7] = Lonza serum-free medium, 37° C. for 7 days, test compound 25 μg/ml
# [8] = Lonza serum-free medium, 37° C. for 7 days, test compound 250 μg/ml
# T1 sequence (P09038 143-288): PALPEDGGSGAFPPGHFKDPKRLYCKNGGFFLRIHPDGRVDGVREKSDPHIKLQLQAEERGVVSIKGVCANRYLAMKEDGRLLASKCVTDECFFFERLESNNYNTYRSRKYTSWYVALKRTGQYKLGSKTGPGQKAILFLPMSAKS
substance,measurement,setting,value
L-triserine SO3Na,concentration showing a suppressive effect on a decrease in the bFGF concentration of the medium,"bFGF [1]; Lonza serum-free medium, 37° C. for 7 days",not less than 25 μg/ml
same,bFGF concentration relative to that of 4° C. control (ELISA),"bFGF [1]; Lonza serum-free medium, 37° C. for 7 days, test compound 250 pg/ml",x (bFGF concentration was less than 10% relative to that of 4 °C control)
same,bFGF concentration relative to that of 4° C. control (ELISA),bFGF [1]; [5],x (bFGF concentration was less than 10% relative to that of 4 °C control)
same,bFGF concentration relative to that of 4° C. control (ELISA),bFGF [1]; [6],x (bFGF concentration was less than 10% relative to that of 4 °C control)
same,bFGF concentration relative to that of 4° C. control (ELISA),bFGF [1]; [7],− (bFGF concentration was not less than 10% and less than 30% relative to that of 4 °C control)
same,bFGF concentration relative to that of 4° C. control (ELISA),bFGF [1]; [8],++ (bFGF concentration was not less than 50% and less than 70% relative to that of 4 °C control)
same,concentration at which a decrease in the protein amount of FGF is not suppressed,bFGF [1]; as shown in the Examples (methods of Examples I-1 and II-1),not more than 2.5 μg/ml
same,effectiveness ELISA,bFGF [1]; summary grade of bFGF stabilization,++ (bFGF concentration was not less than 50% and less than 70% relative to that of 4 °C control)
same,sulfer content Found (inorganic analysis),[2],18
same,effectiveness cells,[3]; summary grade of cell proliferation,⊚ (not less than 120)
same,number of cells relative to control,[3]; test compound 25 pg/ml,— (100-50)
same,number of cells relative to control,[3]; test compound 250 pg/ml,◯ (not less than 100)
same,number of cells relative to control,[3]; test compound 25 ng/ml,— (100-50)
same,number of cells relative to control,[3]; test compound 250 ng/ml,— (100-50)
same,"bFGF concentration, 4° C. ctrl ratio",bFGF [4]; test compound 250 pg/ml,x (bFGF concentration was less than 10% relative to that of 4 °C control)
same,"bFGF concentration, 4° C. ctrl ratio",bFGF [4]; test compound 25 ng/ml,x (bFGF concentration was less than 10% relative to that of 4 °C control)
same,"bFGF concentration, 4° C. ctrl ratio",bFGF [4]; test compound 250 ng/ml,x (bFGF concentration was less than 10% relative to that of 4 °C control)
same,"bFGF concentration, 4° C. ctrl ratio",bFGF [4]; test compound 25 μg/ml,++ (bFGF concentration was not less than 50% and less than 70% relative to that of 4 °C control)
same,"bFGF concentration, 4° C. ctrl ratio",bFGF [4]; test compound 250 μg/ml,+++ (bFGF concentration was not less than 70% relative to that of 4 °C control)
maltitol SO3Na,bFGF concentration relative to that of 4° C. control (ELISA),bFGF [1]; [5],x (bFGF concentration was less than 10% relative to that of 4 °C control)
same,bFGF concentration relative to that of 4° C. control (ELISA),bFGF [1]; [6],++ (bFGF concentration was not less than 50% and less than 70% relative to that of 4 °C control)
same,bFGF concentration relative to that of 4° C. control (ELISA),bFGF [1]; [7],+++ (bFGF concentration was not less than 70% relative to that of 4 °C control)
same,bFGF concentration relative to that of 4° C. control (ELISA),bFGF [1]; [8],++ (bFGF concentration was not less than 50% and less than 70% relative to that of 4 °C control)
same,effectiveness ELISA,"bFGF [1]; effectiveness in ELISA evaluation of mesenchymal stem cells (medium), 4° C. control ratio",+++ (+++ 70%<)
same,sulfur content Found (inorganic analysis),"[2]; ICPS-8100, evaluation samples containing 0.01 wt % test compound",17 wt %
same,effectiveness cells,"[3]; growth of mesenchymal stem cell, control ratio",⊚ (⊚ not less than 120%)
same,concentration showing a suppressive effect on a decrease in the bFGF concentration of the medium,bFGF [4],not less than 2.5 μg/ml
same,bFGF concentration relative to that of 4° C. control (ELISA),bFGF [4]; test compound 250 pg/ml,x (bFGF concentration was less than 10% relative to that of 4 °C control)
same,bFGF concentration relative to that of 4° C. control (ELISA),bFGF [4]; test compound 25 ng/ml,x (bFGF concentration was less than 10% relative to that of 4 °C control)
same,bFGF concentration relative to that of 4° C. control (ELISA),bFGF [4]; test compound 250 ng/ml,x (bFGF concentration was less than 10% relative to that of 4 °C control)
same,bFGF concentration relative to that of 4° C. control (ELISA),bFGF [4]; test compound 25 μg/ml,+ (bFGF concentration was not less than 30% and less than 50% relative to that of 4 °C control)
same,bFGF concentration relative to that of 4° C. control (ELISA),bFGF [4]; test compound 250 μg/ml,+ (bFGF concentration was not less than 30% and less than 50% relative to that of 4 °C control)
